Laboratory results from paper PMC8161026, “Synthesis and Anticancer Activity Evaluation of 5-[2-Chloro-3-(4-nitrophenyl)-2-propenylidene]-4-thiazolidinones” (Molecules, 2021).

Experiments:
TK-10 = assay: NCI DTP 60 cell line screen, SRB
KM12 = KM12 (Colon Cancer), 48 h, SRB
SN12C [1] = conditions: SN12C (Renal Cancer), 48 h, SRB
MOLT-4 [2] = assay: cells; conditions: Homo sapiens, MOLT-4, 48 h
SK-MEL-28 [3] = conditions: SK-MEL-28 (Melanoma), 48 h, SRB
OVCAR-8 = assay: NCI DTP 60 cell line screen, SRB
PC-3 [4] = conditions: PC-3 (Prostate Cancer), 48 h, SRB
SN12C [5] = assay: cells; conditions: Homo sapiens, 48 h
OVCAR-3 = assay: NCI DTP 60 cell line screen, SRB
EKVX = EKVX (Non-Small Cell Lung Cancer), 48 h, SRB
LOX IMVI = LOX IMVI (Melanoma), 48 h, SRB
NCI-H460 [6] = assay: cells; conditions: Homo sapiens, NCI-H460, 48 h
PC-3 [7] = assay: cells; conditions: Homo sapiens, PC-3, 48 h
MOLT-4 [8] = test system: MOLT-4
SK-MEL-2 [9] = conditions: SK-MEL-2 (Melanoma), 48 h, SRB
SK-MEL-28 [10] = assay: cells; conditions: Homo sapiens, SK-MEL-28, 48 h
UACC-62 = assay: NCI DTP 60 cell line screen, SRB
HOP-62 = assay: cells; conditions: Homo sapiens, HOP-62, 48 h
SK-MEL-2 [11] = assay: cells; conditions: Homo sapiens, SK-MEL-2, 48 h
HT-29 = assay: NCI DTP 60 cell line screen, SRB
Colo 205 = assay: NCI DTP 60 cell line screen, SRB
UO-31 = assay: NCI DTP 60 cell line screen, SRB
DU-145 [12] = assay: cells; conditions: Homo sapiens, DU-145, 48 h
NCI-H460 [13] = conditions: NCI-H460 (Non-Small Cell Lung Cancer), 48 h, SRB
T-47D = T-47D (Breast Cancer), 48 h, SRB
DU-145 [14] = conditions: DU-145 (Prostate Cancer), 48 h, SRB
SNB-75 = SNB-75 (CNS Cancer), 48 h, SRB

Molecule O=C(O)CCN1C(=O)/C(=C/C(Cl)=C/c2ccc([N+](=O)[O-])cc2)SC1=S [Compound 2h, 3-{5-[(Z,2Z)-2-Chloro-3-(4-nitrophenyl)-2-propenylidene]-4-oxo-2-thioxothiazolidin-3-yl}propanoic acid] has a GI50 (TK-10; Homo sapiens, TK-10, 48 h) of 2.33 µM, a CC50 (TK-10; Homo sapiens, TK-10, 48 h, read-out: LC50) of 92 µM and a TGI (TK-10; TK-10 (Renal Cancer), 48 h, SRB) of 16.9 µM. The “TI (Therapeutic Index)” value (RPMI-8226; GI50 (normal blood lymphocyte)/GI50 (RPMI-8226)) was 395.22, the TGI (RPMI-8226; RPMI-8226 (Leukemia), 48 h, SRB) was 1.30 µM and the TGI (KM12) was 29.5 µM. For the same molecule, the TGI (SN12C [1]) was 2.99 µM, the GI50 (MOLT-4 [2]) was 0.016 µM and the CC50 (MOLT-4 [2]; read-out: LC50) was greater than 100 µM. The TGI (SK-MEL-28 [3]) was 23.6 µM, the GI50 (OVCAR-8; Homo sapiens, OVCAR-8, 48 h) was 0.244 µM and the CC50 (OVCAR-8; Homo sapiens, OVCAR-8, 48 h, read-out: LC50) was greater than 100 µM. For the same molecule, the TGI (OVCAR-8; OVCAR-8 (Ovarian Cancer), 48 h, SRB) was 11.5 µM, the TGI (PC-3 [4]) was 13.7 µM and the GI50 (SN12C [5]) was 1.05 µM. For the same molecule, the CC50 (SN12C [5]; read-out: LC50) was 8.48 µM, the GI50 (OVCAR-3; Homo sapiens, OVCAR-3, 48 h) was 0.135 µM and the CC50 (OVCAR-3; Homo sapiens, OVCAR-3, 48 h, read-out: LC50) was 66.6 µM. For the same molecule, the TGI (OVCAR-3; OVCAR-3 (Ovarian Cancer), 48 h, SRB) was 6.05 µM, the TGI (EKVX) was 4.01 µM and the “TI (Therapeutic Index)” value (HL-60(TB); GI50 (normal blood lymphocyte)/GI50 (HL-60(TB))) was 157.18. The TGI (HL-60(TB); HL-60(TB) (Leukemia), 48 h, SRB) was 1.87 µM, the TGI (LOX IMVI) was 0.515 µM and the GI50 (NCI-H460 [6]) was 0.804 µM. The CC50 (NCI-H460 [6]; read-out: LC50) was greater than 100 µM, the GI50 (PC-3 [7]) was 0.712 µM and the CC50 (PC-3 [7]; read-out: LC50) was 41.9 µM. For the same molecule, the “TI (Therapeutic Index)” value (MOLT-4 [8]; GI50 (normal blood lymphocyte)/GI50 (MOLT-4)) was 3408.75, the TGI (MOLT-4 [8]; MOLT-4 (Leukemia), 48 h, SRB) was 19.7 µM and the TGI (SK-MEL-2 [9]) was 4.93 µM. The GI50 (SK-MEL-28 [10]) was 3.59 µM, the CC50 (SK-MEL-28 [10]; read-out: LC50) was 89.5 µM and the GI50 (UACC-62; Homo sapiens, UACC-62, 48 h) was 1.23 µM. For the same molecule, the CC50 (UACC-62; Homo sapiens, UACC-62, 48 h, read-out: LC50) was 7.18 µM, the TGI (UACC-62; UACC-62 (Melanoma), 48 h, SRB) was 2.97 µM and the GI50 (HOP-62) was 6.54 µM. For the same molecule, the CC50 (HOP-62; read-out: LC50) was 52.8 µM, the GI50 (SK-MEL-2 [11]) was 0.802 µM and the CC50 (SK-MEL-2 [11]; read-out: LC50) was 65.1 µM. For the same molecule, the TGI (HT-29; HT-29 (Colon Cancer), 48 h, SRB) was 2.77 µM, the GI50 (HT-29; Homo sapiens, HT-29, 48 h) was 1.25 µM and the CC50 (HT-29; Homo sapiens, HT-29, 48 h, read-out: LC50) was greater than 100 µM. It also gave a TGI (Colo 205; Colo 205 (Colon Cancer), 48 h, SRB) greater than 100 µM, a GI50 (Colo 205; Homo sapiens, COLO 205, 48 h) of 0.35 µM and a CC50 (Colo 205; Homo sapiens, COLO 205, 48 h, read-out: LC50) greater than 100 µM. For the same molecule, the GI50 (UO-31; Homo sapiens, UO-31, 48 h) was 0.812 µM, the CC50 (UO-31; Homo sapiens, UO-31, 48 h, read-out: LC50) was 6.31 µM and the TGI (UO-31; UO-31 (Renal Cancer), 48 h, SRB) was 2.43 µM. It also gave a GI50 (DU-145 [12]) of 0.421 µM, a CC50 (DU-145 [12]; read-out: LC50) of 52.3 µM and a TGI (NCI-H460 [13]) of 3.32 µM. For the same molecule, the TGI (T-47D) was greater than 100 µM, the TGI (DU-145 [14]) was 3.48 µM and the TGI (SNB-75) was 46.0 µM.
